# Literature values in patent US10001469B2, “Use of GPR83 to identify pruritus-related substances” (University of Miyazaki, priority 2010, dated 2018).
# Assays:
# [1] = system: HK-1-induced scratching behavior; details: pre-administration, Non-patent Documents 7 and 8; cited from earlier work
# [2] = system: SP-induced scratching behavior; details: pre-administration, Non-patent Documents 7 and 8; cited from earlier work
structure (smiles),measurement,setting,value
"Ic1ccccc1CN[C@@H]1C2CCN(CC2)[C@@H]1C(c1ccccc1)c1ccccc1 (racemic) [L-703,606]",suppression of HK-1-induced scratching behavior,[1],suppressed
same,suppression of SP-induced scratching behavior,[2],suppressed
